Reference: the CheMixHub viscosity set
Where “and” joins values, the source holds several entries; their conditions need not be identical. Identical values can stand only once.

Experiment: xn = mol fraction of the nth substance listed

COc1ccccc1N + CC(C)(C)O
viscosity [mPa·s], 101 kPa
Conditions | x1 = 0.1116 | x1 = 0.186 | x1 = 0.2667 | x1 = 0.3547 | x1 = 0.4852 | x1 = 0.5945 | x1 = 0.6737 | x1 = 0.7585 | x1 = 0.8979
303.15 K | 3.186 | 3.335 | 3.499 | 3.676 | 3.932 | 4.141 | 4.289 | 4.448 | 4.714
308.15 K | 2.904 | 3.046 | 3.199 | 3.363 | 3.602 | 3.797 | 3.935 | 4.083 | 4.327
313.15 K | 2.371 | 2.521 | 2.681 | 2.855 | 3.114 | 3.333 | 3.493 | 3.669 | 3.962
318.15 K | 1.967 | 2.116 | 2.277 | 2.451 | 2.718 | 2.95 | 3.123 | 3.314 | 3.639

CCC(C)=O + CC(C)=O
viscosity [mPa·s], 101 kPa
Conditions | x1 = 0.2 | x1 = 0.4 | x1 = 0.6 | x1 = 0.8
293.15 K | 0.334 | 0.35 | 0.365 | 0.381
313.15 K | 0.278 | 0.29 | 0.302 | 0.314

O=C(O)c1ccccc1 + CC(C)=O
viscosity, 101 kPa
Conditions | 298.15 K | 303.15 K | 308.15 K | 313.15 K | 318.15 K
x1 = 0.201 | – | – | 0.6647 mPa·s | – | 0.5884 mPa·s
x1 = 0.2103 | 0.755 mPa·s | 0.7075 mPa·s | 0.6647 mPa·s | 0.6278 mPa·s | 0.5884 mPa·s
x1 = 0.213 | – | – | 0.6741 mPa·s | – | 0.5924 mPa·s
x1 = 0.229 | – | 0.7776 mPa·s | 0.7283 mPa·s and 0.7283 mPa·s | 0.6819 mPa·s | 0.6407 mPa·s and 0.6407 mPa·s
x1 = 0.247 | – | – | 0.75 mPa·s | – | 0.6571 mPa·s

CCCCCCCC(=O)OCC + CC(C)CCO
100 kPa
Conditions | viscosity [mPa·s]
298.15 K, x1 = 0.3 | 1.885
308.15 K, x1 = 0.5001 | 1.315
313.15 K, x1 = 0.1 | 1.845

CCC(C)=O + CC(C)CO
viscosity [mPa·s], 101.3 kPa
Conditions | x2 = 0.0854 | x2 = 0.1986 | x2 = 0.3001 | x2 = 0.3904 | x2 = 0.4974 | x2 = 0.5941 | x2 = 0.6983 | x2 = 0.7991 | x2 = 0.8965
298.15 K | 0.423 | 0.477 | 0.538 | 0.613 | 0.734 | 0.885 | 1.13 | 1.5 | 2.115
308.15 K | 0.38 | 0.426 | 0.476 | 0.535 | 0.63 | 0.748 | 0.933 | 1.206 | 1.637
318.15 K | 0.344 | 0.382 | 0.424 | 0.473 | 0.548 | 0.64 | 0.781 | 0.983 | 1.289

C1CCCCC1 + CC(C)O
303.15 K, 101.33 kPa
Conditions | viscosity [mPa·s]
x2 = 0.098 | 0.8169
x2 = 0.2003 | 0.8387
x2 = 0.3097 | 0.8861
x2 = 0.3997 | 0.9325
x2 = 0.4969 | 0.9831
x2 = 0.6009 | 1.063
x2 = 0.7025 | 1.174
x2 = 0.8004 | 1.313

CCC(C)=O + CC(C)O
101 kPa
Conditions | viscosity [mPa·s]
308.15 K, x1 = 0.1282 | 1.095
313.15 K, x1 = 0.0595 | 1.165

COC(C)=O + CC(C)O
298.15 K
Conditions | viscosity [mPa·s]
101 kPa, x2 = 0.0988 | 0.385
101 kPa, x2 = 0.2003 | 0.416
101 kPa, x2 = 0.3227 | 0.453
101 kPa, x2 = 0.3967 | 0.484
101 kPa, x2 = 0.4976 | 0.53
101 kPa, x2 = 0.666 | 0.668
101 kPa, x2 = 0.7895 | 0.933
101 kPa, x2 = 0.7978 | 0.96
101 kPa, x2 = 0.9011 | 1.37
101.33 kPa, x1 = 0.0598 | 1.642
101.33 kPa, x1 = 0.1684 | 1.101
101.33 kPa, x1 = 0.2671 | 0.83
101.33 kPa, x1 = 0.3634 | 0.671
101.33 kPa, x1 = 0.4646 | 0.571
101.33 kPa, x1 = 0.5621 | 0.504
101.33 kPa, x1 = 0.6773 | 0.448
101.33 kPa, x1 = 0.7619 | 0.417
101.33 kPa, x1 = 0.866 | 0.394

O=C(O)c1ccccc1 + CC(C)O
viscosity [mPa·s], 101 kPa
Conditions | x1 = 0.000601 | x1 = 0.00181 | x1 = 0.00276 | x1 = 0.0042 | x1 = 0.00508 | x1 = 0.005992
298.15 K | 2.579 | 2.574 | 2.569 | 2.562 | 2.559 | 2.556
308.15 K | 1.932 | 1.927 | 1.922 | 1.916 | 1.914 | 1.912
318.15 K | 1.496 | 1.49 | 1.486 | 1.481 | 1.479 | 1.477

CC(=O)C(=O)O + CC(C)[C@@H]1CC[C@@H](C)C[C@H]1O
100 kPa, x2 = 0.67
Conditions | viscosity [mPa·s]
293.15 K | 44.64
298.15 K | 29.95
303.15 K | 21.24
308.15 K | 15.67
313.15 K | 11.88
318.15 K | 9.36
323.15 K | 7.511

COC(C)=O + CC(O)CO
Conditions | viscosity [mPa·s]
298.15 K, 101 kPa, x1 = 0.251 | 12.35

COc1ccccc1N + CCC(=O)CC
viscosity [mPa·s], 100 kPa
Conditions | x1 = 0.0991 | x1 = 0.1998 | x1 = 0.2865 | x1 = 0.3698 | x1 = 0.4502 | x1 = 0.5469 | x1 = 0.6601 | x1 = 0.7965 | x1 = 0.8805
303.15 K | 0.905 | 1.383 | 1.793 | 2.178 | 2.544 | 2.98 | 3.48 | 4.069 | 4.425
308.15 K | 0.85 | 1.3 | 1.681 | 2.038 | 2.379 | 2.784 | 3.249 | 3.796 | 4.123
313.15 K | 0.795 | 1.217 | 1.569 | 1.897 | 2.213 | 2.586 | 3.016 | 3.52 | 3.819

COc1ccccc1N + CCC(=O)O
viscosity [mPa·s], 100 kPa
Conditions | x1 = 0.1097 | x1 = 0.183 | x1 = 0.2628 | x1 = 0.3502 | x1 = 0.4802 | x1 = 0.5897 | x1 = 0.6693 | x1 = 0.7549 | x1 = 0.8961
303.15 K | 1.402 | 1.697 | 2.017 | 2.367 | 2.884 | 3.317 | 3.631 | 3.967 | 4.518
308.15 K | 1.3 | 1.575 | 1.873 | 2.198 | 2.679 | 3.082 | 3.373 | 3.685 | 4.197
313.15 K | 1.197 | 1.452 | 1.727 | 2.028 | 2.472 | 2.844 | 3.113 | 3.401 | 3.873
318.15 K | 1.097 | 1.333 | 1.587 | 1.865 | 2.275 | 2.619 | 2.867 | 3.132 | 3.567

COc1ccccc1N + CCC(C)=O
viscosity [mPa·s], 100 kPa
Conditions | x1 = 0.0814 | x1 = 0.1724 | x1 = 0.2543 | x1 = 0.3412 | x1 = 0.4394 | x1 = 0.5191 | x1 = 0.6354 | x1 = 0.7587 | x1 = 0.8677
303.15 K | 0.785 | 1.225 | 1.615 | 2.024 | 2.477 | 2.84 | 3.362 | 3.906 | 4.373
308.15 K | 0.727 | 1.145 | 1.51 | 1.888 | 2.31 | 2.648 | 3.136 | 3.642 | 4.073
313.15 K | 0.669 | 1.064 | 1.403 | 1.751 | 2.142 | 2.455 | 2.907 | 3.376 | 3.77
